Measurements: patent publication US11866431B2, “Bicyclic compounds” (Vivace Therapeutics, Inc., priority 2018, dated 2024)
pIC50: −log10 of the molar value.

System: 8XTBD luciferase reporter (YAP reporter) in HEK293T cells
Assay: YAP Reporter Assay
Format: cell-based
Conditions: Homo sapiens, HEK-293T; HEK293T cells stably transfected with 8XTBD luciferase reporter and pRLTK; 24-hr incubation; top concentration 3 μM; read-out: Firefly Luciferase IC50
Summary of the method: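 HEK293T cells stably carrying 8XTBD firefly luciferase and TK-renilla (3×10^3 cells/well) dosed 3-4 h after plating with compounds from 3 μM final, 1:3 dilution, 10 points, quadruplicates. After 24 h at 37° C, Dual-Glo readings gave IC50 and maximum inhibition reported separately for firefly and renilla.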

SMILES: O=C(NCc1ncns1)c1ccc2c(-c3ccc(C(F)(F)F)cc3)cccc2c1 [Compound 220, N-((1,2,4-thiadiazol-5-yl)methyl)-5-(4-(trifluoromethyl)phenyl)-2-naphthamide]
- pIC50: > 7.00

SMILES: Cc1nsc(CNC(=O)c2ccc3c(-c4ccc(C(F)(F)F)cc4)cccc3c2)n1 [Compound 221, N-((3-methyl-1,2,4-thiadiazol-5-yl)methyl)-5-(4-(trifluoromethyl)phenyl)-2-naphthamide]
- pIC50: > 7.00

SMILES: NC(=O)/C=C/CCNC(=O)c1ccc2c(-c3ccc(C(F)(F)F)cc3)cccc2c1 [Compound 222, N-[(E)-5-amino-5-oxo-pent-3-enyl]-5-[4-(trifluoromethyl)phenyl]naphthalene-2-carboxamide]
- pIC50: > 7.00

SMILES: C[C@@H](NC(=O)c1ccc2c(-c3ccc(C(F)(F)F)cc3)cccc2c1)c1cc(N(C)C)ccn1 [Compound 223, (R)—N-(1-(4-(dimethylamino)pyridin-2-yl)ethyl)-5-(4-(trifluoromethyl)phenyl)-2-naphthamide]
- pIC50: 6.00 to 7.00

SMILES: C[C@H](NC(=O)c1ccc2c(-c3ccc(C(F)(F)F)cc3)cccc2c1)c1cc(N(C)C)ccn1 [Compound 224, (S)—N-(1-(4-(dimethylamino)pyridin-2-yl)ethyl)-5-(4-(trifluoromethyl)phenyl)-2-naphthamide]
- pIC50: 5.52 to 6.00

SMILES: CC(NC(=O)c1ccc2c(-c3ccc(C(F)(F)F)cc3)cccc2c1)c1cc(Br)ccn1 (centres unmarked) [Compound 225, N-(1-(4-bromopyridin-2-yl)ethyl)-5-(4-(trifluoromethyl)phenyl)-2-naphthamide]
- pIC50: > 7.00

SMILES: N#C/C=C/CCCNC(=O)c1ccc2c(-c3ccc(C(F)(F)F)cc3)cccc2c1 [Compound 227, N-[(E)-5-cyanopent-4-enyl]-5-[4-(trifluoromethyl)phenyl]naphthalene-2-carboxamide]
- pIC50: > 7.00

SMILES: N#C/C=C\CCCNC(=O)c1ccc2c(-c3ccc(C(F)(F)F)cc3)cccc2c1 [Compound 228, N—[(Z)-5-cyanopent-4-enyl]-5-[4-(trifluoromethyl)phenyl]naphthalene-2-carboxamide]
- pIC50: > 7.00

SMILES: O=C(NCc1ccncc1)c1ccc2c(-c3ccc(C(F)(F)F)cc3)cccc2c1 [Compound 229, N-(pyridin-4-ylmethyl)-5-(4-(trifluoromethyl)phenyl)-2-naphthamide]
- pIC50: > 7.00

SMILES: COC(=O)/C=C/CCNC(=O)c1ccc2c(-c3ccc(C(F)(F)F)cc3)cccc2c1 [Compound 230, methyl (E)-5-[[5-[4-(trifluoromethyl)phenyl]naphthalene-2-carbonyl]amino]pent-2-enoate]
- pIC50: 6.00 to 7.00

SMILES: N#CC(O)CCCCNC(=O)c1ccc2c(-c3ccc(C(F)(F)F)cc3)cccc2c1 (centres unmarked) [Compound 231, N-(5-cyano-5-hydroxy-pentyl)-5-[4-(trifluoromethyl)phenyl]naphthalene-2-carboxamide]
- pIC50: 6.00 to 7.00

SMILES: COc1cc(-c2ccc(C(F)(F)F)cc2F)c2ncc(C(=O)N[C@@H](C)c3ccccn3)cc2c1 [Compound 232, (S)-8-(2-Fluoro-4-(trifluoromethyl)phenyl)-6-methoxy-N-(1-(pyridin-2-yl)ethyl)quinoline-3-carboxamide]
- pIC50: > 7.00

SMILES: COc1cc(-c2ccc(C(F)(F)F)cc2F)c2ncc(C(=O)N[C@H](C)CO)cc2c1 [Compound 233, (R)-8-(2-Fluoro-4-(trifluoromethyl)phenyl)-N-(1-hydroxypropan-2-yl)-6-methoxyquinoline-3-carboxamide]
- pIC50: > 7.00

SMILES: COCCC(=O)Nc1cccc(CNC(=O)c2ccc3c(-c4ccc(C(F)(F)F)cc4)cccc3c2)c1 [Compound 234, N-(3-(3-methoxypropanamido)benzyl)-5-(4-(trifluoromethyl)phenyl)-2-naphthamide]
- pIC50: > 7.00

SMILES: Nc1cccc(CNC(=O)c2ccc3c(-c4ccc(C(F)(F)F)cc4)cccc3c2)c1 [Compound 235, N-(3-aminobenzyl)-5-(4-(trifluoromethyl)phenyl)-2-naphthamide]
- pIC50: > 7.00

SMILES: CC(C)(C)OC(=O)Nc1cccc(CNC(=O)c2ccc3c(-c4ccc(C(F)(F)F)cc4)cccc3c2)c1 [Compound 236, Tert-Butyl (3-((5-(4-(trifluoromethyl)phenyl)-2-naphthamido)methyl)phenyl)carbamate]
- pIC50: 6.00 to 7.00

SMILES: CC(=O)Nc1cccc(CNC(=O)c2ccc3c(-c4ccc(C(F)(F)F)cc4)cccc3c2)c1 [Compound 237, N-(3-acetamidobenzyl)-5-(4-(trifluoromethyl)phenyl)-2-naphthamide]
- pIC50: > 7.00

SMILES: O=C(NCCCCCO)c1ccc2c(-c3ccc(C(F)(F)F)cc3)cccc2c1 [Compound 238, N-(5-hydroxypentyl)-5-[4-(trifluoromethyl)phenyl]naphthalene-2-carboxamide]
- pIC50: 6.00 to 7.00

SMILES: O=C(NCc1ccccn1)c1ccc2c(-c3ccc(C(F)(F)F)cc3)cccc2c1 [Compound 239, N-(pyridin-2-ylmethyl)-5-(4-(trifluoromethyl)phenyl)-2-naphthamide]
- pIC50: > 7.00

SMILES: COc1cccc(CNC(=O)c2ccc3c(-c4ccc(C(F)(F)F)cc4)cccc3c2)c1 [Compound 240, N-(3-methoxybenzyl)-5-(4-(trifluoromethyl)phenyl)-2-naphthamide]
- pIC50: 6.00 to 7.00

SMILES: O=C(NCc1ccccc1)c1ccc2c(-c3ccc(C(F)(F)F)cc3)cccc2c1 [Compound 241, N-benzyl-5-(4-(trifluoromethyl)phenyl)-2-naphthamide]
- pIC50: > 7.00

SMILES: C[C@@H](NC(=O)c1ccc2c(-c3ccc(C(F)(F)F)cc3)cccc2c1)c1ncc[nH]1 [Compound 242, (R)—N-(1-(1H-imidazol-2-yl)ethyl)-5-(4-(trifluoromethyl)phenyl)-2-naphthamide]
- pIC50: 6.00 to 7.00

SMILES: C[C@H](NC(=O)c1ccc2c(-c3ccc(C(F)(F)F)cc3)cccc2c1)c1ncc[nH]1 [Compound 243, (S)—N-(1-(1H-imidazol-2-yl)ethyl)-5-(4-(trifluoromethyl)phenyl)-2-naphthamide]
- pIC50: 6.00 to 7.00

SMILES: C[C@H](NC(=O)c1ccc2c(-c3ccc(C(F)(F)F)cc3)cccc2n1)c1ccccn1 [Compound 244, (S)—N-(1-(Pyridin-2-yl)ethyl)-5-(4-(trifluoromethyl)phenyl)quinoline-2-carboxamide]
- pIC50: > 7.00

SMILES: COC[C@H](C)NC(=O)c1ccc2c(-c3ccc(C(F)(F)F)cc3)cccc2n1 [Compound 246, (S)—N-(1-Methoxypropan-2-yl)-5-(4-(trifluoromethyl)phenyl)quinoline-2-carboxamide]
- pIC50: 6.00 to 7.00

SMILES: C[C@H](CO)NC(=O)c1ccc2c(-c3ccc(C(F)(F)F)cc3)cccc2n1 [Compound 247, (R)—N-(1-Hydroxypropan-2-yl)-5-(4-(trifluoromethyl)phenyl)quinoline-2-carboxamide]
- pIC50: 6.00 to 7.00

SMILES: CC(C)NC(=O)c1ccc2c(-c3ccc(C(F)(F)F)cc3)cccc2n1 [Compound 248, N-isopropyl-5-(4-(trifluoromethyl)phenyl)quinoline-2-carboxamide]
- pIC50: 6.00 to 7.00

SMILES: O=C(NCCCCCl)c1ccc2c(-c3ccc(C(F)(F)F)cc3)cccc2c1 [Compound 249, N-(4-chlorobutyl)-5-(4-(trifluoromethyl)phenyl)-2-naphthamide]
- pIC50: 6.00 to 7.00

SMILES: O=C(NC1(c2ccccn2)CC1)c1ccc2c(-c3ccc(C(F)(F)F)cc3)cccc2c1 [Compound 250, N-(1-(pyridin-2-yl)cyclopropyl)-5-(4-(trifluoromethyl)phenyl)-2-naphthamide]
- pIC50: 6.00 to 7.00
